Laboratory results as given in US20240197728A1, “METHODS AND PHARMACEUTICAL COMPOSITIONS FOR TREATING REFRACTORY EPILEPSY” (INSERM (INSTITUT NATIONAL DE LA SANTÉ ET DE LA RECHERCHE …, priority 2021, published 2024).

Legend:
[1] = system: spontaneous interictal-like discharges (IIDs) in slices from mTLE patients; experiment: Multielectrode array recording of postoperative hippocampal-subicular slices from mTLE patients; type: cell-based, human; details: 10 μM bumetanide, >10 min application
Method: (§1) For all experiments on hippocampal cultures, neurons were pre-incubated for 2 hours with either DMSO, PCPZ or CLP257 in a CO2 incubator set at 37° C. Drugs were added directly to the culture medium. For electrophysiology experiments, neurons were also recorded in presence of these drugs in the bath. For biochemistry experiments on rat hippocampo-cortical slices, slices were incubated with either DMSO (vehicle), CLP257, PCPZ, WNK463 or sodium orthovanadate for 2 hours in interface chambers set at 37° C. For human tissue experiments, slices were pre-incubated with either DMSO, CLP257 or PCPZ for 2 hours in interface chambers set at 37° C. and then also recorded in presence of these compounds.
Patients or their legal guardians gave informed consent to participate in the study. Patients ([…], 3 males, 4 female, age range: 16-54 years) diagnosed with mesial temporal lobe epilepsy with hippocampal sclerosis underwent multimodal preoperative neurological, neurophyschological and psychiatric evaluations as well as video-electroencephalographic recording, magnetic resonance imaging and fluorodeooxyglugose positron emission tomography. Cortectomies were performed at Sainte-Anne Hospital by neurosurgeons B. Devaux and B. Turak and at Pitié-Salpêtriére Hospital by neurosurgeons S. Clemenceau and B. Mathon. Cortical specimens collected in the operating room were immediately transported in ice-cold (0-4° C.), oxygenated solution (O2/CO2 95/5%), containing (in mM): N-methyl-d-glucamine 93, KCl 2.5, NaH2PO4 1.2, NaHCO3 30, HEPES 20, D-glucose 20, ascorbic acid 5, sodium pyruvate 3, MgSO4 10 and CaCl2 0.5 (300-310 mOsm, pH7.4) and transported within 15 minutes to the laboratory. Transverse hippocampal-subicular slices (400 m thick) were prepared in the same solution using a vibratome (HM650V, Microm). They were maintained for 20-30 minutes at 37° C. and then at room temperature in an interface chamber containing artificial cerebrospinal fluid (ACSF) composed of (in mM): D-glucose 10, KCl 3.5, NaHOC3 26, NaH2PO4 1.25, NaCl 126, CaCl2 1.6 and MgCl2 1.2 (290 mOsm), equilibrated with 5% CO2 in 95% 02.
Multielectrode array recordings were performed using a MEA2100 station (Multi Channel Systems) equipped with a 120-microelectrode array chamber (custom 12×10 layout, 30 μm TiN electrodes spaced 1 mm vertical and 1.5 mm horizontal). Slices were maintained in the recording chamber using a home-made platinum-nylon harp and superfused with pre-warmed (37° C.) oxygenated ACSF at a rate of 6 ml/min. Slices were imaged using a video-microscope table (MEA-VMT1, Multi Channel Systems) in order to register the location of electrodes with respect to the slice. Extracellular signals were acquired at a sampling rate of 10 kHz using Multi Channel Experimenter (Multi Channel Systems) and analyzed offline using homemade software (Matlab, The Mathworks).

NKCC1 = target: T1, NKCC1 (Homo sapiens, UniProt P55011); details: NEMO trial, neonatal seizures; cited from earlier work
T1 sequence (P55011 1-1212): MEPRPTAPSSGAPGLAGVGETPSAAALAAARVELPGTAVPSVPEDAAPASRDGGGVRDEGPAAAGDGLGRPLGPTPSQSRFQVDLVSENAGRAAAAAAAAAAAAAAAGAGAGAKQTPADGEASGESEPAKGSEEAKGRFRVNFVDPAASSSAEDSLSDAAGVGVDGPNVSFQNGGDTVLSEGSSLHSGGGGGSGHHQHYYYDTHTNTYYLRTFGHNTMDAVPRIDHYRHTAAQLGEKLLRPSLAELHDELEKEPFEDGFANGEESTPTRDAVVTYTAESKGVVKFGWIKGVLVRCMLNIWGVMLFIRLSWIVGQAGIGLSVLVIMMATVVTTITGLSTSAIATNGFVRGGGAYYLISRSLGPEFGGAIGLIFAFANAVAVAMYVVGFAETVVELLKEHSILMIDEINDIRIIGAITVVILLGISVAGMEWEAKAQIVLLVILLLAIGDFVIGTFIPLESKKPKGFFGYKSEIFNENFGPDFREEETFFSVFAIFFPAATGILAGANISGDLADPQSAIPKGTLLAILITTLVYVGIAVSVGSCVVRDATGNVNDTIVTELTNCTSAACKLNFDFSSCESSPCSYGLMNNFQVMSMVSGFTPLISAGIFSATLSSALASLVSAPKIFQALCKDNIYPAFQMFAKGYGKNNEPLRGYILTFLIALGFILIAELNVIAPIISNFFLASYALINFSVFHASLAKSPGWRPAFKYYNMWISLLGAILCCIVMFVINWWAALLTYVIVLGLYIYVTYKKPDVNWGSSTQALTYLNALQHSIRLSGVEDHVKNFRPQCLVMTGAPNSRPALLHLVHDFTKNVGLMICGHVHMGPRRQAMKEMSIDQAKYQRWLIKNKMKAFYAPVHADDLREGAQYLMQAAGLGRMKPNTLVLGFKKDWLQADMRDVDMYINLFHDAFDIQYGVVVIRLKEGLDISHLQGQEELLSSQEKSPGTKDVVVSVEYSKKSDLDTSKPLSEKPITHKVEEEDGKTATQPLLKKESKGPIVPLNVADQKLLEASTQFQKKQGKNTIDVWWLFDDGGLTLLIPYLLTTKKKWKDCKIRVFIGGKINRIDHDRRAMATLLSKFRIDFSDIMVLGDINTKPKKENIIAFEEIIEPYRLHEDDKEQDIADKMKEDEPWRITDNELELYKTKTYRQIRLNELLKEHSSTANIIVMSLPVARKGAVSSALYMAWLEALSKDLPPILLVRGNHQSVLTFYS

OSR1 = experiment: Immunoblot of OSR1 phosphorylation and expression in hippocampo-cortical slices; type: cell-based, rat; details: 10 μM WNK463, 2 h; vs DMSO
Method: as §1
(§2) 8-weeks old Sprague Dawley male rats were anesthetized by intraperitoneal ketamine/xylazine injection (120/10 mg/kg) and perfused transcardially with ice-cold (0-4° C.), oxygenated solution (O2/CO2 95/5%), containing (in mM): N-methyl-d-glucamine 93, KCl 2.5, NaH2PO4 1.2, NaHCO330, HEPES 20, D-glucose 20, ascorbic acid 5, sodium pyruvate 3, MgSO4 10 and CaCl2) 0.5 (300-310 mOsm, pH7.4). Brains were removed and transverse hippocampo-cortical slices (400 m thick) were prepared in the same solution using a vibratome (HM650V, Microm). Slices were then incubated for 2-hours with DMSO, the KCC2 enhancers (CLP257, PCPZ, WNK43) or sodium orthovanadate in an interface chamber containing artificial cerebrospinal fluid (ACSF) composed of (in mM): D-glucose 10, KCl 3.5, NaHOC3 26, NaH2PO4 1.25, NaCl 126, CaCl2) 1.6 and MgCl2 1.2 (290 mOsm), equilibrated with 5% CO2 in 95% 02. After the treatments, slices were washed with cold PBS, instantaneously frozen with liquid nitrogen and stored at −80° C.
(§3) Slices were mechanically lysed on ice, using a 2 mL Dounce, in a buffer containing (in mM): Tris/HCl, pH 7.5 50, EGTA 1, EDTA 1, sodium orthovanadate 1, sodium-B-glycerophosphate 10, sodium fluoride 50, sodium pyrophosphate 5, sucrose 270, benzamidine 1, phenylmethylsulfonyl fluoride 2, Triton […], (v/v) 2-mercaptoethanol 0.1% and protease inhibitors (Roche). After complete homogenization, samples were centrifuged (16,000×g at 4° C. for 10 min) and the supernatant was collected. Protein quantification was done using Pierce BCA Protein Assay kit (Thermo Scientific) with BSA as standard.
Samples were subjected to electrophoresis on polyacrylamide gradient gels (4-12% bis-tris gels) and transferred to nitrocellulose membranes. Membranes were rinsed with TBS-tween solution (TBST; Invitrogen) and blocked with 5% (w/v) skim milk. The membranes were then immunoblotted in 5% (w/v) skim milk in TBST with a primary antibody against KCC2 (rabbit, 07-432; Millipore; 1:1000), or phosphotyrosine (mouse, clone 4G10, Millipore, 1:1000), and a mouse primary antibody against neuron-specific beta-III tubulin overnight at 4° C. (clone 2G10; T8578; Sigma-Aldrich; 1:1000). They were then washed three times with distillated water, three times with TBST-milk solution and incubated for one hour at RT with goat secondary antibodies anti-rabbit IRDye 800 (1:3000; LI-COR), goat anti-mouse IRDye 700 (1:3000; LI-COR) or donkey anti-sheep DyLight 800 (1:3000; Rockland). Membranes were then washed again with TBST three times and one time with TBS. Fluorescence was detected and the relative intensities of immunoblot bands were determined using Odyssey infrared imaging system (LI-COR Bioscience). […]

KCC2 = experiment: Immunoprecipitation/immunoblot of KCC2 phosphorylation and expression in hippocampo-cortical slices; type: cell-based, rat
Method: as §1, §2, §3
The following phosphorylation site-specific antibodies: anti-KCC3A phospho Thr1048 (0.35 mg/ml, sheep, [S0961C] 1st bleed, Dundee), anti-KCC3A phospho Thr 991 (0.26 mg/ml, sheep, [S959C] 1st bleed, Dundee) were first incubated for 30 min at 4° C. with the corresponding non-phosphorylated peptide (10 mg/ml, Dundee).
Phospho-antibodies or anti-KCC2 antibodies (07-432; Millipore) were then coupled with protein-G-Sepharose (4 Fast Flow; Sigma-Aldrich) at a ratio of […] of antibody per 100 μl of beads, for 2 h at 4° C. without agitation. 1.5 mg of clarified cell lysate was incubated with the antibody-coupled bead suspension, overnight at 4° C. under gentle agitation. The supernatant was collected after centrifugation and beads were washed twice with NaCl solution (0.25M NaCl in 1×PBS) and twice with PBS alone. Bound proteins were eluted with 2×LDS sample buffer (Invitrogen) containing 0.5% (v/v) 2-mercaptoethanol and denaturated at 75° C. for 20 min (IP with phospho-antibodies) or 37° C. for 1 h (IP with anti-KCC2 antibodies) before centrifugation (13,000×g at 4° C. for 15-20 min).
Samples were subjected to electrophoresis on polyacrylamide gradient gels (4-12% bis-tris gels) and transferred to nitrocellulose membranes. Membranes were rinsed with TBS-tween solution (TBST; Invitrogen) and blocked with 5% (w/v) skim milk. The membranes were then immunoblotted in 5% (w/v) skim milk in TBST with a primary antibody against KCC2 (rabbit, 07-432; Millipore; 1:1000), or phosphotyrosine (mouse, clone 4G10, Millipore, 1:1000), and a mouse primary antibody against neuron-specific beta-III tubulin overnight at 4° C. (clone 2G10; T8578; Sigma-Aldrich; 1:1000). […]

SPAK = experiment: Immunoblot of SPAK phosphorylation and expression in hippocampo-cortical slices; type: cell-based, rat; details: 10 μM WNK463, 2 h; vs DMSO
Method: as §1, §2, §3
Samples were subjected to electrophoresis on polyacrylamide gradient gels (4-12% bis-tris gels) and transferred to nitrocellulose membranes. Membranes were rinsed with TBS-tween solution (TBST; Invitrogen) and blocked with 5% (w/v) skim milk. […] Fluorescence was detected and the relative intensities of immunoblot bands were determined using Odyssey infrared imaging system (LI-COR Bioscience). […]

CCCCNc1cc(C(=O)O)cc(S(N)(=O)=O)c1Oc1ccccc1 [bumetanide]
slices in which the amplitude of IIDs was reduced or IIDs abolished [1]: 3 of 4 | hearing loss in surviving patients (NKCC1): 3/11

CC(C)(C)NC(=O)c1cncn1C1CCN(c2ccc(-c3nnc(C(F)(F)F)o3)cn2)CC1 [WNK463]
change of OSR1 phosphorylation (S325) (OSR1): −81.00±5.56% | change of total KCC2 expression (KCC2; 10 μM WNK463, 2 h, slices, vs DMSO): −7.64±13.00% | change of KCC2 phosphorylation at S940 (KCC2; 10 μM WNK463, 2 h, vs DMSO): −14.40±4.67% | change of KCC2 phosphorylation at T906 (KCC2; 10 μM WNK463, 2 h, vs DMSO): −13.70±12.5% | change of KCC2 phosphorylation at T1007 (KCC2; 10 μM WNK463, 2 h, vs DMSO): −78.702±3.27% | change of SPAK phosphorylation (S327) (SPAK): −84.10±4.57%

[Na+].[Na+].[Na+].[O]=[V]([O-])([O-])[O-] [sodium orthovanadate]
change of tyrosine phosphorylation of KCC2 (KCC2; sodium orthovanadate 200 μM in H2O (FIG. 4 legend), 2 h): +89.10±45.40%
